Data as given in patent US9096544B2, “Therapeutic compounds” (Wayne State University, priority 2009, dated 2015).

Legend:
FFMA-AML cells = assay: Test D: inhibition of FFMA-AML growth in NOD-SCID mice (survival); assay type: in vivo
Experimental: FIG. 6 illustrates 3-Cl-AHPC and compound 16 inhibition of FFMA-AML cell proliferation in NOD-SCID mice and prolongation of their survival. A) Sixteen NOD-SCID mice, which had been randomized into two groups of eight each, were injected through the tail vein with 1×10^6 FFMA-AML cells. Intravenous injection of vehicle or 3-Cl-AHPC (30 mg/kg) twice daily for 4 days was instituted 24 h later. B) An identical study was performed with the exception that 3-Cl-AHPC was administered interperitoneally. C) Twenty four NOD-SCID mice were randomized into three groups of eight. […] The mice were monitored for toxicity and survival.
(§1) Non-obese diabetic-severe combined immunodeficiency (NOD-SCID) and ICR-SCID mice were obtained from Jackson Laboratories (Bar Harbor, Me.) and Taconic Farms (Germantown, N.Y.), respectively. A) FFMA-AML and TF(v-SRC) systemic models: NOD-SCID and ICR-SCID mice (4 to 5 weeks old) were injected with either FFMA-AML or TF(v-SRC) cells intravenously. Treatment with either vehicle, 3-Cl-AHPC or compound 16 (the compound of Example 1) was instituted the following day. Once symptoms such as diarrhea, dehydration, weight loss, ascites, paralysis or general weakness became evident, mice were euthanized. B) TF(v-SRC) subcutaneous mouse model. ICR-SCID mice were trocared subcutaneously bilaterally with TF(v-SRC) tumor fragments. Animals with equal tumor weights determined as described previously (Zhang Y. et al., Blood. 2002; 100:2917-2925) were assigned to three experimental arms: 1) control (vehicle treated), 2) subcutaneously treated with compound 16, and 3) intravenously treated with compound 16. The percent increase in the host life-span (% ILS) of the FFMA-AML and TF(v-SRC) bearing mice was calculated by subtracting the […] divided by the median day of death of the AML-bearing vehicle treated mice. In order to determine the efficacy of the 3-Cl-AHPC and compound 16, survival distribution of the 3-Cl-AHPC or compound 16-treated (T) or vehicle (C) groups were compared using the log-rank test. Survival was characterized as the duration of the animal's life span 24 h after the initiation of the xenograft until an observed event (euthanasia or death). A p-value of less than 5% (p<0.05) was considered statistically significant.
The ability of 3-Cl-AHPC and compound 16 to inhibit the growth of FFMA-AML cells in NOD-SCID mice was determined. NOD-SCID mice randomly assigned to two groups of eight mice each were injected with 1 million cells through the tail vein. The mice then received either vehicle or 3-Cl-AHPC (30 mg/kg) given intravenously twice daily for 4 days. […]

PANC-1 cells = assay: Test I: apoptosis of PANC-1 pancreatic cancer cells (Annexin V-FITC/PI); assay type: cell-based; settings: 1 μM, 48 h
Experimental: Pancreatic cancer cell lines (COLO357, PANC-1, Capan-2, AsPc-1 cells and MiaPaCa-2 cells obtained from American Type Culture Collection; ATCC, Rockville, Md.) were treated with 1 μM 3-Cl-AHPC and compound 16 for various times. Apoptosis in cells were analyzed by flow cytometry using Annexin V-FITC binding together with propidium iodide (PI) staining (Annexin V-FITC apoptosis Detection Kit 1, BD Biosciences, San Diego, Calif.). Data acquisition was done on a FACS Calibur flow cytometer (BD) and analyzed with CellQuest software (BD Biosciences). 3-Cl-AHPC and compound 16 mediated inhibition of cell growth were determined by 3-(4,5-dimethylthiazol-2-yl)-2,5-diphenyltetrazolium bromide (MTT) assay. The cells were seeded on 96-well plates at a density of 4×10^4 cells/well in a volume of 200 μl culture medium. 1 μM AHP3 and 3-Cl-AHPC in DMSO (final concentration 0.1%) were added to the cells for various times. […] After discarding the medium, MTT precipitates were solubilized with 200 μl DMSO and the plates read on a BioTeK Synergy HT (BioTeK Instrument Inc., Vermont) at an absorbance 570 nm. […] The spheroids were stained with acridine orange/ethidium bromide staining and immediately visualized and photographed with fluorescence microscope (OLYMPUS CKX41). […] Then spheroids were visualized and photographed with a fluorescence microscope.

TF(v-SRC) cells = assay: Test E: inhibition of TF(v-SRC) cell growth in SCID mice (systemic model); assay type: in vivo; settings: 20 mg/kg intravenously every other day, 15 doses
Experimental: (§2) FIG. 7 illustrates compound 16 inhibited TF(v-SRC) proliferation and growth in SCID mice. NOD SCID mice were randomized into two groups of eight. Each mouse was injected with 1×10^7TF(v-SRC) cells and 24 h later mice were either treated intravenously with compound 16 (20 mg/kg) or vehicle on a Monday, Wednesday and Friday schedule for five weeks. Mice were monitored for toxicity and survival. A) Survival of TF(vSRC) inoculated mice treated with compound 16, and B) absence of weight loss in compound 16 treated SCID mice. C) compound 16 inhibited palpable TF(v-SRC) growth in SCID mice. TF(v-SRC) cells were grown subcutaneously in a maintenance SCID mouse. The tumor was harvested and approximately 20 mg of tumor was subcutaneously injected utilizing a trochar into each flank of a SCID mouse. The tumors were then allowed to reach a size of 100 mg. The mice were randomized into three groups of 8 mice. Groups were treated either intravenously or subcutaneously at a distant site from the tumor with 20 mg/kg of compound 16 on a Monday, Wednesday and Friday schedule for 12 injections (4 weeks). Control mice were treated intravenously with vehicle.
as §1
The ability of compound 16 to inhibit the growth of TF(v-SRC) cells in SCID mice was determined. SCID mice were injected with 10 million TF(v-SRC) cells. The mice were treated intravenously with compound 16 (20 mg/kg) or vehicle every other day for a total of 15 doses. […] TF(v-SRC) growth in the SCID mice was documented by flow cytometry.

TF(v-SRC) tumors = assay: Test F: inhibition of growth of palpable TF(v-SRC) tumors; assay type: in vivo, SCID mice; settings: palpable tumors of 100 mg
Experimental: as §2, with “Groups were treated either intravenously or subcutaneously at a distant site from the tumor with 20 mg/kg of compound 16 on a Monday, Wednesday and Friday schedule for 12 injections (4 weeks). Control mice were treated intravenously with vehicle.” left out
Non-obese diabetic-severe combined immunodeficiency (NOD-SCID) and ICR-SCID mice were obtained from Jackson Laboratories (Bar Harbor, Me.) and Taconic Farms (Germantown, N.Y.), respectively. […] Animals with equal tumor weights determined as described previously (Zhang Y. et al., Blood. 2002; 100:2917-2925) were assigned to three experimental arms: 1) control (vehicle treated), 2) subcutaneously treated with compound 16, and 3) intravenously treated with compound 16. […]

Row | SMILES | increase in the length of survival over vehicle (FFMA-AML cells; 30 mg/kg intravenously twice daily for 4 days, p value 0.0001) | toxicity in treated mice (FFMA-AML cells; 3-Cl-AHPC 30 mg/kg twice daily for 4 days) | cells in which induction of apoptosis was noted (PANC-1 cells) | increase in survival (ILS) (FFMA-AML cells; 5.0 mg/kg or 7.5 mg/kg twice a day for 4 days, tail vein, p=0.0002) | toxicity in treated mice (FFMA-AML cells; compound 16 5.0 or 7.5 mg/kg twice a day) | clinical signs of toxicity (TF(v-SRC) cells) | length of survival (TF(v-SRC) cells) | malignant cells by flow cytometry (lymph node/tumor specimens) (TF(v-SRC) cells) | treated mice with no evidence of leukemia (TF(v-SRC) cells) | weight loss compared to vehicle-treated mice (TF(v-SRC) cells) | reduction in TF(v-SRC) growth (TF(v-SRC) tumors; 20 mg/kg intravenously every other day) | reduction in TF(v-SRC) growth (TF(v-SRC) tumors; 20 mg/kg subcutaneously at a remote site every other day)
1 | O=C(O)C=Cc1ccc(-c2ccc(O)c(C34CC5CC(CC(C5)C3)C4)c2)c(Cl)c1 [Compound 3-Cl-AHPC, 4-[3-(1-adamantyl)-4-hydroxyphenyl]-3-chlorocinnamic acid, reference compound] | 25% | toxicity including weight loss and decreased physical activity | 50% | – | – | – | – | – | – | – | – | –
2 | O=C(O)/C=C/c1cnc(-c2ccc(O)c(C34CC5CC(CC(C5)C3)C4)c2)nc1 [Compound 16, (E)-3-[2-(3-(1-Adamantyl)-4-hydroxyphenyl)-5-pyrimidinyl]-2-propenoic acid] | – | – | 50% | 26% | extremely well tolerated and no toxicity was noted | did not display any evidence of diarrhea, dehydration, scruffy coat, or decreased physical activity | marked increase in the length of survival | No malignant cells were identified | 87% | did not display any evidence of weight loss | 55% | 55%
